This note sets out measurements from patent US9376469B2, “Proteolytically resistant hydrogen bond surrogate helices” (New York University, priority 2011, dated 2016).

In one series the test system is HeLa cells. In words: Cellular uptake assay, confocal microscopy of live cells. The class given is cell-based. As to conditions: 15 μM fluorescein-tagged peptide, 2 hours, 37° C. Here is the method:
HeLa cells were cultured to sub-confluence in DMEM (Invitrogen) supplemented with 10% (v/v) fetal bovine serum (FBS) at 37° C. in a humidified incubator containing 5% CO2. Cells (˜1×10^4 cells/ml) in DMEM supplemented with 10% FBS were plated onto a 24-well culture plate containing microscope cover slides. After overnight incubation, cells were washed three times with 1 ml HBSS (Invitrogen) and supplemented with 15 μM fluorescein-tagged peptides in 1 mM PBS (pH 7.4) to a total volume of 500 μl. Peptide treated cells were incubated for another 2 hours at 37° C., washed five times with 500 μl HBSS, and imaged directly on a Leica TSC SP 2 laser scanning confocal microscope. Twenty serial 1 μm Z-section images through the middle of the cells were collected and analyzed.
It is likely that cellular uptake of HBS helices will have sequence dependence; however, it is noteworthy that peptides with an overall negative charge are internalized (Patgiri et al., Nat. Chem. Biol. 7:585 (2011), which is hereby incorporated by reference in its entirety), as positive charge is often associated with enhanced cellular uptake of peptides (Henchey et al., J. Am. Chem. Soc'y 132:941 (2010); Bernal et al., J. Am. Chem. Soc'y 129:2456 (2007); Wender et al., Proc. Nat'l Acad. Sci. USA 97:13003 (2000), each of which is hereby incorporated by reference in its entirety).

For the next series, the system named is serum proteases. As to the kind of experiment: Serum stability assay. The series is classed as in vitro ADME. As to conditions: 25% human serum in RPMI, 37° C., after 24 hours, LCMS. Here is the method:
Peptides and 50% human serum (Sigma, St Louis, Mo., USA; product number S7023) in RPMI were temperature-equilibrated to 37° C. for 15 minutes prior to the experiments. […] After 0, 2, 5, 10, and 24 hours, three samples of each peptide (50 μl) were taken, and were precipitated by the addition of 100 μl of 6% aqueous trichloroacetic acid. The samples were cooled to 4° C. for 20 minutes and centrifuged (14000 rpm for 5 minutes). The supernatants were immediately frozen on dry ice and 100 μl of each were analyzed on an Agilent LCMS using 0.1% formic acid in water (eluent A) and 0.1% formic acid in acetonitrile (eluent B). The level of intact peptide was determined by comparing the LC % area of the peptide peak at different time points to the % area of the O-hour peak.
Human serum contains a myriad of proteases and provides a gauge for the stability of compounds under physiological conditions.

For the next series, the system named is trypsin. In words: Trypsin digestion assay. The series is classed as in vitro ADME. Conditions: 1 ng/μL trypsin, 4° C. On the procedure: A solution containing 500 μM of tryptophan, 1 ng/μL of trypsin, and 500 μM of peptide in PBS was incubated at 4° C. At the indicated time intervals, 100 μL of this solution was quenched with 100 μL of 2% aqueous TFA, and then injected into reversed-phase HPLC to analyze the change in the area of the peptide peak compared to the area of an internal control (tryptophan).
Trypsin was chosen as the model proteolytic enzyme because the p53 activation domain contains a lysine group near the C-terminus, providing a cleavage site for this enzyme. […] The rate of peptide digestion was measured using an LCMS assay with tryptophan as an internal control.

For series [1], the target named is T1, His6-tagged Mdm2 (25-117) (Homo sapiens, UniProt Q00987).
T1 construct: made in house; host or cells: E. coli BL21 DE3 pLySS, pET-14B vector
As to the kind of experiment: Fluorescence polarization-based competitive binding assay with Flu-p53. As to conditions: for Kd: read-out: KD (binding constant for His6-Mdm2); for Binding to Mdm2, result in words: negative control peptides. (In general: Polarisation of emitted light reports the rotation of a fluorescent probe.)

Square brackets hold non-standard residues; d marks the D form. Peptide text beside a SMILES is read from it. * marks the point of attachment. X1 = NC(=O)CC[C@@H]1NC(=O)CCC=CCN(CCC(=O)*)C(=O)[C@H](CCC(=O)O)NC1=O; β3hL = CC(C)C[C@H](N)CC(=O)O; β3hA = C[C@H](N)CC(=O)O

On to “XQeG*FSdLWKILSC^Flu-NH2 (SEQ ID NO: 11) [Flu-1]”, for which the “Cellular uptake (intracellular fluorescence)” value with HeLa cells is given as “intense intracellular fluorescence”.
Consider `CC(C)C[C@@H](CC(=O)N[C@@H](CC(C)C)C(=O)N[C@@H](CO)C(N)=O)NC(=O)[C@H](CCCCN)NC(=O)[C@H](Cc1c[nH]c2ccccc12)NC(=O)[C@H](CC(C)C)NC(=O)C[C@H](CC(=O)O)NC(=O)[C@H](CO)NC(=O)[C@H](Cc1ccccc1)NC(=O)CN1CC=CCCC(=O)N[C@@H](CCC(N)=O)C(=O)N[C@@H](CCC(=O)O)CC1=O` [Peptide 1, XQeG*FSdLWKILS-NH2 (SEQ ID NO: 5)], for which the “Stability in human serum, in words” value with serum proteases was “remained unperturbed”. The metabolised at 24 h, 500 μM with trypsin (trypsin (isolated protease) in PBS, after 24 hours, 500 μM peptide, read-out: Peptide cleaved by trypsin) is around 20%.
What is called Kd is a measure of binding affinity in units of concentration. On to `CC(=O)N[C@@H](CCC(N)=O)C(=O)N[C@H]1CCC[C@@H]1C(=O)NCC(=O)N[C@@H](Cc1ccccc1)C(=O)N[C@@H](CO)C(=O)N[C@H]1CCC[C@@H]1C(=O)N[C@@H](CC(C)C)C(=O)N[C@@H](Cc1c[nH]c2ccccc12)C(=O)N[C@@H](CCCCN)C(=O)N[C@H]1CCC[C@@H]1C(=O)N[C@@H](CC(C)C)C(=O)N[C@@H](CO)C(N)=O` [Peptide 4, Ac-Q(ACPC)GFS(ACPC)LWK(ACPC)LS-NH2 (SEQ ID NO: 8)], for which the Kd in series [1] came to 0.43 ± 0.086 µM. Further, the “Affinity for Mdm2 as compared to peptide 1” value in series [1] (relative to peptide 1) was “roughly five-fold lower affinity”.
`CC(=O)N[C@@H](CCC(N)=O)C(=O)N[C@@H](CCC(=O)O)CC(=O)NCC(=O)N[C@@H](Cc1ccccc1)C(=O)N[C@@H](CO)C(=O)N[C@@H](CC(=O)O)CC(=O)N[C@@H](CC(C)C)C(=O)N[C@@H](Cc1c[nH]c2ccccc12)C(=O)N[C@@H](CCCCN)C(=O)N[C@H](CC(=O)N[C@@H](CC(C)C)C(=O)N[C@@H](CO)C(N)=O)CC(C)C` [Peptide 3, Ac-QeGFSdLWKILS-NH2 (SEQ ID NO: 7)]: the “Stability toward trypsin degradation, in words” value in the series with trypsin (PBS) is given as “stable toward degradation”.
With `CC(C)C[C@@H](CC(=O)N[C@@H](C)C(=O)N[C@@H](CO)C(N)=O)NC(=O)[C@H](CCCCN)NC(=O)[C@H](Cc1c[nH]c2ccccc12)NC(=O)[C@H](CC(C)C)NC(=O)C[C@H](CC(=O)O)NC(=O)[C@H](CO)NC(=O)[C@H](C)NC(=O)CN1CC=CCCC(=O)N[C@@H](CCC(N)=O)C(=O)N[C@@H](CCC(=O)O)CC1=O` [Peptide 5, XQeG*ASdLWKIAS-NH2 (SEQ ID NO: 9)], in series [1], the “Binding to Mdm2, result in words” value is “does not bind to Mdm2 with measurable affinity” and the Kd is above 1000 µM.
For `CC(C)C[C@@H](CC(=O)N[C@@H](Cc1c[nH]c2ccccc12)C(=O)N[C@@H](CCCCN)C(=O)N[C@@H](CC(C)C)C(=O)N[C@@H](C)CC(=O)N[C@@H](CO)C(N)=O)NC(=O)[C@H](CC(=O)O)NC(=O)[C@H](CO)NC(=O)[C@H](C)NC(=O)CCN1CC=CCCC(=O)N[C@@H](CCC(N)=O)C(=O)N[C@@H](CCC(=O)O)C1=O` [Peptide 4-9, XQEg*ASDIWKLaS-NH2 (SEQ ID NO: 16)] (X1-ASD[β3hL]WKL[β3hA]S-NH2) the same measures were “does not bind with any appreciable binding affinity” and above 1000 µM.
